Results on 100 molecules are retold here after PubChem BioAssay AID2384 (Southern Research Specialized Biocontainment Screening …, 2010).

The assay relates to S. typhi GFP reporter counter-screen, fluorescence, 4 h. As to the kind of experiment: S. typhi counter-screen signal inhibition – fluorescence, 4 h, counter-screen for PhoP regulon inhibitor project, dose response (AID 2384). On the technique in general: Counterscreens check selectivity or assay interference.
Consider `CCOc1cc(Br)cc(/C=N/NC(=O)c2cccnc2)c1O`, for which the IC50 (as a rule, the midpoint of a concentration-inhibition curve) was 126 µM.
In the case of `C=CCNc1ncnc2c1[nH]c1ccc(C)cc12`, the IC50 was 111 µM.
In the case of `CCn1cc(C(=O)O)c(=O)c2cc(F)c(N3CCN(C(=S)Nc4ccccc4OC)CC3)cc21` it was 41.1 µM; in that of `COc1ccc(CCN2CCC(Nc3nc4ccccc4n3Cc3ccc(F)cc3)CC2)cc1`, 29.4 µM; in that of `O=C(C[n+]1cc(-c2ccc(Cl)cc2)n2c1CCC2)N1c2ccccc2Sc2ccccc21`, 50.9 µM.
For `Cc1occc1C(=O)N/N=C/C=C/c1ccccc1`, the IC50 is 97.1 µM.
The same measure for `CN(C)CCCNc1cc(C(C)(C)C)nc2c(-c3ccccc3)cnn12`: 31.5 µM; for `Cc1oc2c(O)c(O)ccc2c(=O)c1-c1ccccc1`: 100 µM.
The same measure for `Cc1ccc(C(=O)N/N=C\c2sccc2C)cn1`: 136 µM.
The same measure for `CCCCC(=O)NNC(=S)NC(=O)CCC`: 92.6 µM; for `CCCNC1=C(C)C(=O)C2=C(C1=O)C(COC(N)=O)[C@]1(OC)C3NC3CN21` (stereo not given in full): 21.3 µM.
In the case of `O=C(C[n+]1cc(-c2ccc(Cl)cc2)n2c1CCC2)Nc1nc(-c2ccccc2)cs1`, the IC50 is 20.1 µM.
Regarding `Cc1ccc(NC(=O)COc2ccccc2CNC(C)(C)CC(C)(C)C)cc1`, the IC50 is 82.5 µM.
The same measure for `CCCC(=O)NC(c1ccco1)c1cc([N+](=O)[O-])c2cccnc2c1O` (stereo not given): 25.4 µM; for `Cc1cc(C)n2nc(S(=O)(=O)Nc3c(Cl)cccc3Cl)nc2n1`: 49.7 µM; for `CCCCNCCCOc1cccc(Cl)c1Cl`: 58.5 µM.
The same measure for `CCc1ccc2c(c1)C1(NN=C(c3ccc(C)cc3)S1)C(=O)N2` (stereo not given): 38.5 µM.
In the case of `CC(C)CCC(CCNCc1ccccn1)c1ccc(Cl)cc1` (stereo not given) it was 54.7 µM; in that of `CCOC(=O)c1c(-c2ccccc2)oc2ccc(OCC(O)CNCCN(C)C)cc12` (stereo not given), 36.8 µM; in that of `Cc1ccc2c(c1)N/C(=C(\C=C(/Cl)[N+](=O)[O-])[N+](=O)[O-])N2`, 131 µM.
On to `CCn1nnc(NC(=O)c2ccc([N+](=O)[O-])o2)n1`, for which the concentration for half-maximal inhibition (IC50) is 80 µM.
As to `Cc1ccc2c(c1)C1CN(C)CCC1N2Sc1ccccc1[N+](=O)[O-]` (stereo not given), the 50% inhibitory concentration (IC50) was 37.9 µM.
Consider `O=C(N/N=C/c1cc(Cl)cc([N+](=O)[O-])c1O)C1CC1`, for which the IC50 is 98 µM.
Consider `COc1c(N2CCN[C@H](C)C2)c(F)cc2c(=O)c(C(=O)O)cn(C3CC3)c12`, for which the IC50 was 4.98 µM.
The same measure for `CN1C(=O)N2CN(C3CCCCC3)CN3C(=O)N(C)C1C23` (stereo not given): 110 µM; for `Cc1ccc(C)c(NC(=O)CCC(=O)N/N=C/c2cc([N+](=O)[O-])ccc2O)c1`: 47.1 µM; for `CCN1CCN(CCNC(=O)c2ccc3c(c2)N(Cc2ccc(F)cc2)C(=O)/C(=C/c2ccccc2)S3)CC1`: 45.5 µM.
Take `CN1/C(=C\C=C\C2=[N+](C)c3ccc4ccccc4c3C2(C)C)C(C)(C)c2ccccc21`: the IC50 is 8.85 µM.
The same measure for `c1cc2c(cc1C1CCCCC1)c1c3n2CCN=C3CCC1`: 37.9 µM; for `Cc1ccc(-c2csc(N=C(N)N)n2)c(C)c1`: 46.3 µM.
The same measure for `CC(=O)NC(c1cccs1)c1cc([N+](=O)[O-])c2cccnc2c1O` (stereo not given): 25.4 µM; for `CCOC(=O)N1CCN(CCC(=O)c2ccc(Br)cc2)CC1`: 82.3 µM.
Regarding `Cc1c(N2C(=O)/C(=C3\C(=O)N(CC(=O)O)c4ccccc43)SC2=S)c(=O)n(-c2ccccc2)n1C`, the IC50 was 95.2 µM.
In the case of `O=C(c1cccs1)c1no[n+]([O-])c1C(=O)c1cccs1` it was 39.8 µM; in that of `CC1CCC(C(C)C)C(OC(=O)C[n+]2cc(-c3ccc(Cl)cc3)n3c2CCC3)C1` (stereo not given), 40.3 µM; in that of `Cc1ccc2nc(NCc3ccccc3)[nH]c2c1`, 35.2 µM.
In the case of `CC[n+]1c(/C=C/N(C)c2ccccc2)n(-c2ccccc2)c2ccc(-c3nc4ccccc4s3)cc21` it was 9.23 µM; in that of `CCOc1ccc(/C=N/NC(=O)c2[nH]ncc2Br)c(O)c1`, 43.7 µM.
In the case of `Cc1ccc(C)c(Nc2cc(C)nc3ccccc23)c1` it was 54.9 µM; in that of `CN1CCC(OC(=O)c2ccc(Br)cc2)CC1`, 18.2 µM.
Take `CCn1cc(C(=O)O)c(=O)c2cc(F)c(N3CCN(C(=S)Nc4ccc(OC)cc4)CC3)cc21`: the IC50 is 35.9 µM.
In the case of `CCc1ccc(Nc2n[n+](-c3ccccc3)c(-c3c(Cl)cccc3Cl)s2)cc1` it was 41.3 µM; in that of `OCCN1CCN(C2Cc3cc(Cl)ccc3Sc3ccc(Cl)cc32)CC1` (stereo not given) (tested in a mixture with another compound), 25.9 µM.
The same measure for `O=C(CC(=O)c1cc(Cl)ccc1O)c1ccccc1`: 26.8 µM; for `Cc1nc2ccccc2c(N)c1C(=O)/C=C/c1ccccc1`: 101 µM; for `O/N=C/C1=C(Cl)c2ccccc2CC1`: 93.4 µM.
In the case of `O=C(Nc1nc(-c2ccccn2)cs1)c1ccc(Br)s1` it was 14.5 µM; in that of `COc1cc(C(=O)N/N=C/c2ccc(OC(=O)c3cccc(C)c3)c(OC)c2)ccc1O`, 108 µM; in that of `C/C(=N\NC(=O)c1cccc(Br)c1)c1ccccn1`, 31.6 µM.
Consider `O=C1c2c(O)ccc(O)c2C(=O)c2c(NCCNCCO)ccc(NCCNCCO)c21`, for which the 50% inhibitory concentration (IC50) was 86.5 µM.
For `CSc1ccc2c(c1)C(N1CCN(C)CC1)Cc1ccc(F)cc1S2` (stereo not given), the IC50 was 23.9 µM.
On to `Clc1ccc2c(c1)C(N1CCNCC1)Cc1ccccc1S2` (stereo not given), for which the IC50 was 35.1 µM.
In the case of `CC1(C)N=C(N)N=C(N)N1c1ccc(Oc2ccc(Cl)cc2)c(Cl)c1` it was 36.3 µM; in that of `O=C(Oc1c(Cl)cc(Cl)c2cccnc12)c1cccc([N+](=O)[O-])c1`, 9.26 µM.
For `Cc1cc(Cl)c(OCCCNCc2ccccc2)c(Br)c1`, the IC50 is 37.5 µM.
The same measure for `COc1cc([N+](=O)[O-])cc(/C=N/NC(=O)c2cccnc2)c1O`: 76.1 µM.
In the case of `O=C(C[n+]1cc(-c2ccccc2)n2c1CCC2)Nc1nc(-c2ccc(F)cc2)cs1`, the IC50 was 37 µM.
Turning to `CN(Cc1ccccc1)CC(O)COc1ccc(CNCc2ccc(Cl)s2)cc1` (stereo not given), the IC50 was 30.4 µM.
In the case of `c1ccc2c(NCCc3c[nH]c4ccccc34)c3ccccc3nc2c1` it was 36.9 µM; in that of `CN(C)CCNc1oc(COc2ccc(-c3ccccc3)cc2)nc1C#N`, 39 µM.
Turning to `C#CCOCCOCCOCCNc1nc(N2CCN(C(=O)[C@H](CCCCN)n3cc([C@@H](N)CO)nn3)CC2)nc(N2CCN(C(=O)[C@H](Cc3cc4ccccc4[nH]3)n3cc([C@@H](N)Cc4ccc(O)cc4)nn3)CC2)n1`, the half-inhibitory concentration (IC50) was 93 µM.
As to `Cc1cc(CSC(=N)N)c(CSC(=N)N)cc1C`, the concentration for half-maximal inhibition (IC50) was 50.1 µM.
As for `COc1ccc(/C=C/c2cc(-c3ccc(C)cc3)o[n+]2C)cc1`, the IC50 is 42.7 µM.
`Clc1ccc(-c2cc(C3CCNCC3)[nH]n2)c(Cl)c1`: the IC50 was 18.2 µM.
The same measure for `CC(=O)NC(c1ccc(Cl)cc1Cl)c1ccc2cccnc2c1O` (stereo not given): 39.6 µM.
Regarding `O=C(CN1C2=NCCCN2c2ccccc21)c1ccc(Br)s1`, the IC50 is 40.2 µM.
The same measure for `CNC[C@@H](Cc1ccccc1)NC[C@@H](CC1CCCCC1)NCCCc1ccccc1`: 19.8 µM.
On to `O=C(NC(=S)NNC(=O)c1cccs1)c1ccco1`, for which the IC50 was 52.3 µM.
In the case of `O=C(CN1CC[n+]2c(-c3cccs3)csc21)c1ccc(-c2ccccc2)cc1` it was 20.3 µM; in that of `O=C(/C=C/c1ccc(F)cc1)NC(=S)NNC(=O)c1cnccn1`, 19 µM.
In the case of `Cc1nnc(N/N=C/c2ccccn2)[nH]c1=O` it was 31.4 µM; in that of `COc1ccc(/C=C/c2cc[n+](C(=O)Cc3ccccc3)cc2)cc1`, 65.3 µM; in that of `Cc1ccc(-c2c[n+](Cc3ccc(Cl)cc3)c3n2CCC3)cc1`, 46 µM.
In the case of `CCOc1ccc(Nc2nc(N)c3ccccc3n2)cc1` it was 44.4 µM; in that of `[O-][n+]1cccc2c(Br)cc(Br)c(O)c21`, 36.6 µM; in that of `CCCCCOc1ccc(CSC(=N)N)cc1[N+](=O)[O-]`, 30.4 µM.
As to `CN1CCN(C2=Cc3ccccc3Sc3cc(F)ccc32)CC1`, the IC50 was 46.7 µM.
The same measure for `Cc1ccccc1S(=O)(=O)NNC(=O)C(=O)NNc1ccccn1`: 36.6 µM.
For the molecule `O=C(CNC(=O)c1ccccc1)N/N=C/c1ccc([N+](=O)[O-])s1`, the IC50 was 28.7 µM.
Consider `CCn1cc(C(=O)O)c(=O)c2cc(F)c(N3CCNCC3)cc21`, for which the 50% inhibitory concentration (IC50) was 0.49 µM.
In the case of `Cc1ccc(Nc2nc(NCCO)c3ccccc3n2)cc1C`, the IC50 is 34 µM.
In the case of `Cc1cccc(Nc2nc(NCc3ccco3)c3ccccc3n2)c1` it was 14 µM; in that of `N/C(=N\OS(=O)(=O)c1ccc2ccccc2c1)c1cccnc1`, 17.3 µM; in that of `CCCCCCCCCCCCOC(=O)C[N+](C)(C)C`, 19.9 µM.
For `Cc1ccc2nc(/C(C#N)=C\c3ccc([N+](=O)[O-])o3)[nH]c2c1`, the IC50 is 95.9 µM.
In the case of `COc1ccccc1Nc1nc(NCc2ccco2)c2ccccc2n1` it was 56.3 µM; in that of `CCOC(=O)c1c(-c2ccc(-c3ccccc3)cc2)csc1NC(=O)CNCCN(C)C`, 82.7 µM.
In the case of `COc1ccc(OCc2n(CC(=O)OC3CC(C)CCC3C(C)C)c3ccccc3[n+]2C)cc1` (stereo not given) it was 36.6 µM.
The same measure for `Clc1c(OCCCn2ccnc2)ccc2ccccc12`: 76.6 µM.
Consider `CC1CCN(CCC(=O)Nc2ccc(Cl)cc2)CC1`, for which the IC50 was 105 µM.
In the case of `Cc1nonc1C(=O)N/N=C/c1ccc([N+](=O)[O-])o1` it was 51.9 µM; in that of `O=C(CCc1ccccc1)NNC(=S)NC(=O)c1ccccc1`, 63 µM.
In the case of `Cc1c2ccncc2c(C)c2c1[nH]c1ccccc12` it was 21.2 µM; in that of `CCCCc1ccc2[nH]cc(CCN)c2c1`, 77 µM.
In the case of `O=C(N/N=C/c1ccc([N+](=O)[O-])s1)C(O)c1ccccc1` (stereo not given) it was 32.1 µM; in that of `O=C(N/N=C/c1ccc(N2CCCC2)c([N+](=O)[O-])c1)c1cccnc1`, 104 µM; in that of `OC(CNCCc1ccc(C(F)(F)F)cc1)COC(c1ccccc1)c1ccccc1` (stereo not given), 29.6 µM.
Take `O=[N+]([O-])c1cc(CN2CCN(c3cccc(C(F)(F)F)c3)CC2)c2cccnc2c1O`: the IC50 is 23.1 µM.
For the molecule `Oc1ccccc1C(Nc1nccs1)c1ccc2cccnc2c1O` (stereo not given), the IC50 is 18.6 µM.
The same measure for `CCOC(=O)N1CCN(CCC(=O)c2ccc(Cl)cc2)CC1`: 66.6 µM.
